Results on one molecule are retold here after paper PMC4603696, “Discovery and characterization of novel small-molecule inhibitors targeting nicotinamide phosphoribosyltransferase” (Scientific Reports, 2015).

Assay type in all cases: cell-based, human
In one assay the test system is NAD level of HepG2 cells. Description: Cellular NAD level, spectrophotometric enzymatic cycling assay. The source says:
F0 was the average d fluo rescen ce of si x backgr ound control s, repres ent ing zero activ ity from a si mul ated enz ym e reaction wit h on ly NAMP T but no NAM and com pound; F100 % was the average d fluorescen ce of si x ref erence cont rols, repr ese nt ing 100% activ ity from int act enz ym e reaction w ithou t com pound p ert ur bation.
Compounds with Activ ity% less tha n 40% were consi dered as inhi bi tor s and subj ect ed to a secondary screen inhi bition valida tion, in whi ch anot her backgr oun d cont rol (FC0), a si mul ated enz ym e reaction with NAMP Tand com pound but no NAM, was int roduced to elimina te the di rec t and /or ind irect inf lue nc e fro m compou nd. At thi s st age , the Activ ity% was cal culated accor ding t o e qua tion ( 2) :
In the screeni ng, the si gna l-to- noi se (S/N) rat io was cal cul ated usi ng the equa tion: (Mean signal -Mean backgr oun d) / SD backgr oun d4. Coe fficient s of vari atio n (CV) were the ratio of SD to mean. The Z ’f act or w as de term ine d by e qua tion (3) 5:
Z' −= (3)1−3(S Dhi ghsigna l+SDlowsigna l)
Mean hi gh signa l Meanlow signa l
Determ inat ion of IC50 for NAMPT inhi bitor s […]
vari ous con cent ration s were adde d int o 96-well pl ate. The pl ate was inc uba ted at 37 °C for 5 min after addition of 16.5 μl react ion buf fer cont aini ng N AMP T. The enz ym e reactions were ini tiated by 4.5 μl NAM (1.1 1 μM) follow ing NMN measurem ent as de scri bed above . […]
Cellul ar level of NAD was measured by spe ctrophot om etric enz ym atic cyc ling assa y, as de scri bed pr evi ousl y6-8. […]
Cell vi ability was de termine d by ou r previ ous method9 usi ng the Cell Counting Kit-8 (CCK -8, Dojindo, Ja pa n). […] Th e absor banc e at 450 nm (A450) was de tected by a pl ate reade r. […]
Briefly, cel ls were se ede d int o 96-well pl ates, cul tur ed overni ght , and trea ted with correspond ing com poun ds for 72 h. […] Sul for hoda mine B in the cells was di sso lved in 10 mmol/L Tris-HCl and was measured at 515 nm usi ng a multiw ell spect ropho tometer […]

Assay [1] deals with HepG2 cells. In words: Cell counting kit-8 (CCK-8) cell viability assay in HepG2. The protocol:
Cellc ount ing k it-8 (CCK-8) assa y
Cell vi ability was de termine d by ou r previ ous method9 usi ng the Cell Counting Kit-8 (CCK -8, Dojindo, Ja pa n). In hu man he pa tocellu lar carcinom a cell line HepG 2, cells were seede d in 96-well plate and starve d for ove r 12 h with se rum-free DMEM at 60~ 70% conf lue nc y, the n trea ted wit h com pounds or ve hicle for 24 h to 72 h accor ding to expe riment requi rement s. […]
10 μl CCK-8 sol ution was adde d to the cul ture medium and inc ub ated at 37 °C for 1 h. Th e absor banc e at 450 nm (A450) was de tected by a pl ate reade r. Each e xperi ment w as carr ied out i n t riplic ate i n thr ee r eplic ate w ells.
In general terms: Tetrazolium dyes change colour on reduction, which living cells bring about.

Assay [2] concerns HepG2 cells. In words: Sulforhodamine B protein staining (SRB) assay in HepG2. To be noted: for IC50: Homo sapiens. How it is done: (§1) Sulfor hod am ine B p rotei n st ai ning (SRB) assay
(§2) Cell pr oliferat ion was eva lua ted by sul for hod amine B pr ot ein st aini ng (SRB) assa y10-12.
(§3) Briefly, cel ls were se ede d int o 96-well pl ates, cul tur ed overni ght , and trea ted with correspond ing com poun ds for 72 h. Cells were the n fixe d with 10% trichl or oa cetic aci d and st ained with sul for hoda mine B (Sigm a). Sul for hoda mine B in the cells was di sso lved in 10 mmol/L Tris-HCl and was measured at 515 nm usi ng a multiw ell spect ropho tometer (VERSA max, Mol ecul ar Devi ces, Sunnyva le, CA). The inhi bi tion rat e on cell pr olif eratio n was cal culated for each well as (A515contr ol cells-A 515tr eated cells)/A515contr ol cells×100 % (A515:
(§4) OD va lue at 515 nm ). The averag e IC50 va lue s were de termine d by Logit method from at leas t t hr eei nde pe nde nt test s.
In general terms: In SRB staining, fixed cells bind dye roughly in proportion to their protein.

The subject of a further assay is A549 cells. In words: SRB assay in A549. The protocol:
as §1, §2, §3, §4

In assay [3] the test system is ovarian cancer cell line A2780. Description: SRB assay in A2780. The note with it: A2780, 72 hours. How it is done:
as §1, §2, §3, §4

Assay [4] deals with osteosarcoma cell line U2OS. In words: SRB assay in U2OS. The note with it: 72 hours. The protocol:
as §1, §2, §3, §4

Turning to `O=S(=O)(c1ccc(NC(=S)NCc2cccnc2)cc1)N1CCCCC1` [MS0], in the assay on NAD level of HepG2 cells (HepG2, 1 μM, 24 hours), the “decrease of cellular NAD level” value is ~ 70%. Moreover, the IC50 in the assay with NAD level of HepG2 cells (Homo sapiens, HepG2, 24 hours treatment, read-out: IC50 for reducing NAD level) was 0.0937 µM; with HepG2 cells [1] (Homo sapiens, HepG2, 48 h, read-out: CCK-8 assay in HepG2: IC50) it was 0.703 ± 0.0954 µM; in the assay with HepG2 cells [2] (HepG2, 72 h, read-out: SRB assay in HepG2: IC50, HepG2, second test, 2-fold concentration gradient, 72 hours) it was roughly 3 µM; in the assay on HepG2 cells [2] (HepG2, read-out: anti-proliferation IC50, initial screen, HepG2, SRB, 10-fold concentration gradient), less than 5 µM; in the assay on A549 cells (Homo sapiens, A549, read-out: anti-proliferation IC50, initial screen), less than 5 µM. Besides, in the assay on HepG2 cells [1] (HepG2, 10 μM, treatment for ≥36 hours), the “cell viability (CCK-8), time course” value is “markedly inhibited”. Further, the “cell viability (CCK-8)” value with HepG2 cells [1] (HepG2, 24 hours, up to 10 μM) is recorded as “almost had no changes”. The “growth inhibition (SRB, in words)” value was “potent growth inhibition” in the assay on HepG2 cells [2] (HepG2, 72 hours); “potent growth inhibition” in the assay with A549 cells (A549, 72 hours); “potent growth inhibition” in assay [3]; “potent growth inhibition” in assay [4].
